# Measurements published in patent publication US6037354A, “Alpha 1a adrenergic receptor antagonists” (Merck & Co., Inc., priority 1998, dated 2000).
# pKi: −log10 of the molar value. Where a name gives a salt, the structure may show the parent alone.
# Columns and labels:
# [1] = target: T1, human alpha 1a adrenergic receptor (Homo sapiens, UniProt P35348); assay: Alpha 1a Adrenergic Receptor Binding screening assay ([125I]-HEAT competition, membranes of stably transfected human alpha 1a cell line); conditions: human alpha 1a receptor, 100 pM [125I]-HEAT, room temperature, one hour
# T1 sequence (P35348 1-466): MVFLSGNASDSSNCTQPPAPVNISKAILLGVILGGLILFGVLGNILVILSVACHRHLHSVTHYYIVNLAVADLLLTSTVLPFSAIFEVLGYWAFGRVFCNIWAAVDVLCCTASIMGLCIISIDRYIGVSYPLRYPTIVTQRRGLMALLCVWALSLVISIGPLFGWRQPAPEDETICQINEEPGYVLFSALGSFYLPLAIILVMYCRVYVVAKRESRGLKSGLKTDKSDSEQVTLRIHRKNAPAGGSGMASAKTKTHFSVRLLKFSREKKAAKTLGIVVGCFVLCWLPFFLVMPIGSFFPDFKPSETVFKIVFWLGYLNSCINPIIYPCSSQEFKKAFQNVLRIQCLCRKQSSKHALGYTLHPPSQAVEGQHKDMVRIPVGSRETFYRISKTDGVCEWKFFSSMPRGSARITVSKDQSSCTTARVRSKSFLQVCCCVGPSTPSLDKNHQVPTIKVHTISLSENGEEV
# Protocol: Screening assay: Alpha 1a Adrenergic Receptor Binding
# Membranes prepared from the stably transfected human alpha 1a cell line (ATCC CRL 11140) were used to identify compounds that bind to the human alpha 1a adrenergic receptor. These competition binding reactions (total volume=200 μl) contained 50 mM Tris-HCl pH. 7.4, 5 mM EDTA, 150 mM NaCl, 100 pM [^125 I]-HEAT, membranes prepared from the alpha 1a cell line and increasing amounts of unlabeled ligand. Reactions were incubated at room temperature for one hour with shaking. Reactions were filtered onto Whatman GF/C glass fiber filters with a Inotec 96 well cell harvester. Filters were washed three times with ice cold buffer and bound radioactivity was determined (Ki).
# [2] = tested on: human alpha 1b and alpha 1d adrenergic receptors; assay: Selective Binding assays ([125I]-HEAT competition, membranes of stably transfected human alpha 1d and alpha 1b cell lines), compared with alpha 1a; conditions: alpha 1a versus alpha 1b and alpha 1d
# Protocol: Selective Binding assays Membranes prepared from stably transfected human alpha 1d and alpha 1b cell lines (ATCC CRL 11138 and CRL 11139, respectively) were used to identify compounds that selectively bind to the human alpha 1a adrenergic receptor. These competition binding reactions (total volume=200 μl) contained 50 mM Tris-HCl pH. 7.4, 5 mM EDTA, 150 mM NaCl, 100 pM [^125 I]-HEAT, membranes prepared from cell lines transfected with the respective alpha 1 subtype expression plasmid and increasing amounts of unlabeled ligand. Reactions were incubated at room temperature for one hour with shaking. Reactions were filtered onto Whatman GF/C glass fiber filters with a Inotec 96 well cell harvester. Filters were washed three times with ice cold buffer and bound radioactivity was determined (Ki).
pKi [1],alpha 1a Ki [1],Compound,selectivity in binding to alpha 1a receptors versus binding to the alpha 1b and alpha 1d receptors [2]
~6.10,,"COc1ccccc1[C@H]1CC[C@@H](N2CC[C@@H](NC(=O)N3C(=O)OC[C@@H]3c3ccc(F)c(F)c3)C2)CC1 [Example 16, (4S)-cis-4-(3,4-Difluorophenyl)-2-oxooxazolidine-3-carboxylic acid-{1-[4-(2-methoxyphenyl)-cyclohexyl]-(3R)-pyrrolidin-3-yl}amide hydrochloride]",
,,"NC(=O)[C@@H]1OC(=O)N(C(=O)N[C@@H]2CCN([C@H]3CC[C@H](c4ccccc4F)CC3)C2)[C@H]1c1ccc(F)c(F)c1 [Example 78, (4S,5R)-trans-4-(3,4-Difluorophenyl)-3-{1-[4-(2-fluorophenyl)cyclohexyl]-(3R)-pyrrolidin-3-ylcarbamoyl}-2-oxo-oxazolidine-5-carboxamide]",about 37 fold
> 6.70,,"Cl.O=C(N[C@@H]1CCN([C@H]2CC[C@@H](c3ccccn3)CC2)C1)N1C(=O)OC[C@@H]1c1ccc(F)c(F)c1 [Example 12, (4S)-cis-4-(3,4-Difluorophenyl)-2-oxooxazolidine-3-carboxylic acid-[1-(4-pyridin-2-yl-cyclohexyl)-(3R)-pyrrolidin-3-yl]amide hydrochloride]",at least 3 fold
,inactive,"O=C(N[C@@H]1CCN(C2CCC(O)(c3ccccn3)CC2)C1)N1C(=O)OC[C@@H]1c1ccc(F)c(F)c1 (stereo partly drawn) [Example 20, (4S)-trans-4-(3,4-Difluorophenyl)-2-oxooxazolidine-3-carboxylic acid-[1-(4-hydroxy-4-pyridin-2-yl-cyclohexyl)-(3R)-pyrrolidin-3-yl]amide hydrochloride]",
